Results taken from paper PMC2248166, “Quantitative peptide binding motifs for 19 human and mouse MHC class I molecules derived using positional scanning combinatorial peptide libraries” (Immunome Research, 2008).
Where a SMILES comes first, the peptide text is derived from it.

The molecules below were run against HLA A*3201 (Homo sapiens, UniProt P04439, A270S/D101S/D185E/E176V/E277Q/F133L/G103R/G107R/G231S/H175R/I121M/I218V/I322F/K168Q/L105A/L300P/L318F/M331R/P208A/P217A/Q94H/R106L/R138Q/S129P/T104I/T323A/T345S/V100E/V321M/V358M) (assay: biochemical).
Format: binding

Compound | IC50 [nM]
CC[C@H](C)[C@H](NC(=O)[C@@H](NC(=O)[C@H](CO)NC(=O)[C@H](CC(C)C)NC(=O)[C@@H](NC(=O)[C@H](CCSC)NC(=O)[C@H](CCSC)NC(=O)[C@@H](NC(=O)[C@H](C)N)[C@@H](C)CC)[C@@H](C)CC)[C@@H](C)O)C(=O)O [3102.0350] (H-AIMMILSTI-OH) | 2.5
CC[C@H](C)[C@H](N)C(=O)N[C@@H](CCSC)C(=O)N[C@@H](CCSC)C(=O)N[C@H](C(=O)N[C@@H](CC(C)C)C(=O)N[C@@H](CO)C(=O)N[C@H](C(=O)N[C@H](C(=O)N[C@H](C(=O)O)[C@@H](C)CC)[C@@H](C)CC)[C@@H](C)O)[C@@H](C)CC [3102.0351] (H-IMMILSTII-OH) | 11
CC[C@H](C)[C@H](NC(=O)[C@H](CC(=O)O)NC(=O)[C@H](CC(C)C)NC(=O)[C@@H](NC(=O)[C@@H](N)CC(C)C)[C@@H](C)O)C(=O)N[C@@H](Cc1ccccc1)C(=O)N[C@@H](Cc1ccc(O)cc1)C(=O)N[C@@H](CC(C)C)C(=O)N[C@@H](Cc1ccccc1)C(=O)O [3102.0354] (H-LTLDIFYLF-OH) | 4.4
CC[C@H](C)[C@H](NC(=O)[C@@H](NC(=O)[C@@H](NC(=O)[C@H](CC(=O)O)NC(=O)[C@@H](NC(=O)[C@H](Cc1ccccc1)NC(=O)[C@@H](NC(=O)[C@@H](NC(=O)[C@@H](N)CO)[C@@H](C)CC)C(C)C)C(C)C)C(C)C)[C@@H](C)CC)C(=O)O [3102.0355] (H-SIVFVDVII-OH) | 59
CC[C@H](C)[C@H](NC(=O)CNC(=O)[C@@H](NC(=O)[C@@H](NC(=O)[C@H](CC(C)C)NC(=O)CNC(=O)[C@H](CS)NC(=O)[C@@H](NC(=O)[C@@H](N)C(C)C)[C@@H](C)CC)[C@@H](C)CC)C(C)C)C(=O)O [3102.0356] (H-VICGLIVGI-OH) | 26
CC[C@H](C)[C@H](NC(=O)[C@H](CO)NC(=O)[C@@H](NC(=O)[C@@H](NC(=O)[C@H](Cc1c[nH]c2ccccc12)NC(=O)[C@H](CCCCN)NC(=O)[C@H](CCSC)NC(=O)[C@H](CCSC)NC(=O)[C@@H](N)CCSC)[C@@H](C)CC)[C@@H](C)CC)C(=O)O [3102.0357] (H-MMMKWIISI-OH) | 0.17
CC[C@H](C)[C@H](NC(=O)[C@H](CC(C)C)NC(=O)[C@H](CC(N)=O)NC(=O)[C@H](C)NC(=O)[C@H](Cc1ccccc1)NC(=O)[C@H](CCCNC(=N)N)NC(=O)[C@H](CO)NC(=O)[C@@H](NC(=O)[C@@H](N)CCCNC(=N)N)[C@@H](C)CC)C(=O)O [3102.0360] (H-RISRFANLI-OH) | 6.2
CC[C@H](C)[C@H](N)C(=O)N[C@H](C(=O)N[C@@H](CCSC)C(=O)N[C@H](C(=O)N[C@@H](CC(N)=O)C(=O)N[C@@H](CO)C(=O)N[C@@H](CC(C)C)C(=O)N[C@H](C(=O)N[C@@H](Cc1ccc(O)cc1)C(=O)O)[C@@H](C)O)C(C)C)[C@@H](C)O [3102.0363] (H-ITMVNSLTY-OH) | 96
CC[C@H](C)[C@H](NC(=O)[C@H](CO)NC(=O)[C@@H](N)CCCCN)C(=O)N[C@@H](CC(N)=O)C(=O)N[C@H](C(=O)N[C@@H](CCC(=O)O)C(=O)N[C@@H](Cc1ccc(O)cc1)C(=O)N[C@@H](CCCNC(=N)N)C(=O)N[C@@H](Cc1ccccc1)C(=O)O)C(C)C [3102.0364] (H-KSINVEYRF-OH) | 1.5
CSCC[C@H](NC(=O)[C@@H](N)CCCCN)C(=O)N[C@@H](CC(=O)O)C(=O)N[C@@H](CC(N)=O)C(=O)NCC(=O)N[C@H](C(=O)N[C@@H](CC(C)C)C(=O)N[C@@H](CCC(=O)O)C(=O)N[C@@H](Cc1ccccc1)C(=O)O)[C@@H](C)O [3102.0365] (H-KMDNGTLEF-OH) | 0.92
CC[C@H](C)[C@H](NC(=O)[C@H](CO)NC(=O)[C@@H](NC(=O)[C@H](CCC(=O)O)NC(=O)[C@H](CC(N)=O)NC(=O)[C@H](Cc1ccc(O)cc1)NC(=O)[C@@H](NC(=O)[C@@H](NC(=O)[C@@H](N)CCCNC(=N)N)[C@@H](C)O)[C@@H](C)CC)[C@@H](C)O)C(=O)O [3102.0366] (H-RTIYNETSI-OH) | 1
CC[C@H](C)[C@H](NC(=O)[C@@H](NC(=O)[C@H](CC(C)C)NC(=O)[C@H](C)NC(=O)[C@@H](NC(=O)[C@@H](NC(=O)[C@@H](NC(=O)[C@@H](NC(=O)[C@@H](N)Cc1c[nH]cn1)[C@@H](C)CC)[C@@H](C)CC)[C@@H](C)CC)C(C)C)[C@@H](C)O)C(=O)O [3102.0368] (H-HIIIVALTI-OH) | 79
CC[C@H](C)[C@H](N)C(=O)N[C@H](C(=O)N[C@@H](Cc1ccc(O)cc1)C(=O)NCC(=O)N[C@@H](CCCNC(=N)N)C(=O)N[C@@H](CO)C(=O)N[C@@H](CC(N)=O)C(=O)N[C@@H](C)C(=O)N[C@H](C(=O)O)[C@@H](C)CC)C(C)C [3102.0369] (H-IVYGRSNAI-OH) | 3.2
CC[C@H](C)[C@H](NC(=O)[C@@H](NC(=O)[C@H](Cc1ccccc1)NC(=O)[C@H](CC(C)C)NC(=O)[C@H](Cc1ccccc1)NC(=O)[C@@H](NC(=O)[C@@H](NC(=O)[C@H](CC(C)C)NC(=O)[C@@H](N)CCCCN)[C@@H](C)CC)[C@@H](C)O)C(C)C)C(=O)O [3102.0370] (H-KLITFLFVI-OH) | 0.41
CC[C@H](C)[C@H](NC(=O)[C@@H](NC(=O)[C@H](Cc1ccc(O)cc1)NC(=O)[C@H](CCC(=O)O)NC(=O)[C@H](CCCCN)NC(=O)[C@H](Cc1ccccc1)NC(=O)[C@H](CC(N)=O)NC(=O)[C@H](CC(C)C)NC(=O)[C@@H](N)C(C)C)[C@@H](C)O)C(=O)O [3102.0371] (H-VLNFKEYTI-OH) | 8.1
CC[C@H](C)[C@H](NC(=O)[C@@H](NC(=O)[C@H](CC(C)C)NC(=O)[C@@H](NC(=O)[C@H](CO)NC(=O)[C@H](CO)NC(=O)[C@@H](NC(=O)[C@H](CO)NC(=O)[C@H](C)N)[C@@H](C)CC)C(C)C)[C@@H](C)O)C(=O)O [3102.0373] (H-ASISSVLTI-OH) | 13
CC[C@H](C)[C@H](NC(=O)[C@H](CC(N)=O)NC(=O)[C@H](Cc1ccc(O)cc1)NC(=O)[C@H](CC(=O)O)NC(=O)[C@@H](NC(=O)[C@H](Cc1ccc(O)cc1)NC(=O)[C@H](CC(N)=O)NC(=O)[C@H](CC(C)C)NC(=O)[C@@H](N)CCSC)C(C)C)C(=O)O [3102.0374] (H-MLNYVDYNI-OH) | 1.6
CC[C@H](C)[C@H](N)C(=O)N[C@@H](CC(C)C)C(=O)N1CCC[C@H]1C(=O)N[C@H](C(=O)N[C@H](C(=O)N[C@@H](Cc1ccccc1)C(=O)N[C@@H](CC(C)C)C(=O)N[C@@H](CO)C(=O)N[C@H](C(=O)O)[C@@H](C)CC)[C@@H](C)CC)C(C)C [3102.0375] (H-ILPVIFLSI-OH) | 4.5
CC[C@H](C)[C@H](NC(=O)[C@H](CCC(=O)O)NC(=O)[C@H](Cc1ccccc1)NC(=O)[C@H](CC(N)=O)NC(=O)[C@@H]1CCCN1C(=O)[C@H](CC(N)=O)NC(=O)[C@H](Cc1ccccc1)NC(=O)[C@@H](NC(=O)[C@@H](N)CC(C)C)[C@@H](C)O)C(=O)O [3102.0377] (H-LTFNPNFEI-OH) | 5.2
CC[C@H](C)[C@H](NC(=O)[C@H](Cc1c[nH]cn1)NC(=O)[C@@H](NC(=O)[C@H](CCSC)NC(=O)[C@H](CCSC)NC(=O)[C@H](CCCCN)NC(=O)[C@H](CCSC)NC(=O)[C@@H](NC(=O)[C@@H](N)CCSC)[C@@H](C)O)C(C)C)C(=O)O [3102.0378] (H-MTMKMMVHI-OH) | 4.8
CC[C@H](C)[C@H](NC(=O)[C@H](C)NC(=O)[C@H](Cc1ccc(O)cc1)NC(=O)[C@H](CO)NC(=O)[C@H](Cc1c[nH]cn1)NC(=O)[C@H](Cc1ccccc1)NC(=O)[C@H](CC(C)C)NC(=O)[C@H](CC(C)C)NC(=O)[C@@H](N)CC(C)C)C(=O)O [3102.0379] (H-LLLFHSYAI-OH) | 11
CC[C@H](C)[C@H](NC(=O)[C@@H](N)Cc1c[nH]cn1)C(=O)N[C@@H](Cc1ccc(O)cc1)C(=O)N[C@@H](Cc1ccccc1)C(=O)N[C@H](C(=O)N[C@@H](CO)C(=O)N[C@@H](CC(C)C)C(=O)N[C@@H](CC(C)C)C(=O)N[C@@H](CC(C)C)C(=O)O)C(C)C [3102.0380] (H-HIYFVSLLL-OH) | 15
CC(C)C[C@H](NC(=O)[C@@H](NC(=O)[C@@H](NC(=O)[C@@H](NC(=O)[C@@H](NC(=O)[C@@H](NC(=O)[C@H](CC(C)C)NC(=O)[C@@H](NC(=O)[C@@H](N)CCCCN)[C@@H](C)O)[C@@H](C)O)[C@@H](C)O)[C@@H](C)O)C(C)C)C(C)C)C(=O)O [3102.0381] (H-KTLTTTVVL-OH) | 9.4
CC[C@H](C)[C@H](N)C(=O)N[C@H](C(=O)N[C@H](C(=O)N[C@@H](Cc1ccc(O)cc1)C(=O)N[C@@H](Cc1ccccc1)C(=O)N[C@@H](CCCNC(=N)N)C(=O)N[C@@H](CCCNC(=N)N)C(=O)N[C@H](C(=O)N[C@H](C(=O)O)[C@@H](C)CC)[C@@H](C)O)C(C)C)[C@@H](C)O [3102.0382] (H-ITVYFRRTI-OH) | 26
CC[C@H](C)[C@H](NC(=O)[C@@H](NC(=O)[C@H](CC(C)C)NC(=O)[C@H](CO)NC(=O)[C@H](C)NC(=O)CNC(=O)[C@H](CC(N)=O)NC(=O)[C@H](CO)NC(=O)[C@@H](N)CC(C)C)[C@@H](C)O)C(=O)O [3102.0383] (H-LSNGASLTI-OH) | 74
CC[C@H](C)[C@H](NC(=O)[C@@H]1CCCN1C(=O)[C@H](CC(C)C)NC(=O)[C@@H](NC(=O)[C@H](CC(N)=O)NC(=O)[C@H](Cc1ccc(O)cc1)NC(=O)[C@H](CCSC)NC(=O)[C@@H](NC(=O)[C@@H](N)Cc1ccc(O)cc1)[C@@H](C)CC)[C@@H](C)CC)C(=O)O [3102.0384] (H-YIMYNILPI-OH) | 39
CC[C@H](C)[C@H](NC(=O)[C@@H](NC(=O)[C@H](CC(N)=O)NC(=O)[C@H](CC(N)=O)NC(=O)[C@H](Cc1ccc(O)cc1)NC(=O)[C@H](CC(C)C)NC(=O)[C@@H](NC(=O)[C@@H](NC(=O)[C@@H](N)Cc1c[nH]cn1)[C@@H](C)O)[C@@H](C)CC)[C@@H](C)O)C(=O)O [3102.0385] (H-HTILYNNTI-OH) | 1.9
CC[C@H](C)[C@H](NC(=O)[C@H](CCCCN)NC(=O)CNC(=O)[C@H](CC(N)=O)NC(=O)[C@@H](NC(=O)[C@@H](N)CCSC)[C@@H](C)O)C(=O)N[C@@H](CC(N)=O)C(=O)N[C@@H](CO)C(=O)N[C@@H](CC(C)C)C(=O)O [3102.0386] (H-MTNGKINSL-OH) | 22
